According to ChEMBL document CHEMBL3352749, “An iridoid glucoside and the related aglycones from Cornus florida” (J Nat Prod, 2014):
Active and inactive are the calls of the source. The calls are words filed in the database; no cut-off is given here.

How the values were obtained:
BG02 = assay: Growth inhibition of human BG02 cells up to 100 uM; type: functional, cell-based
MCF7 = assay: Growth inhibition of human MCF7 cells up to 100 uM; type: functional, cell-based
MDA-MB-231 = assay: Growth inhibition of human MDA-MB-231 cells up to 100 uM; type: functional, cell-based
[1] = molecular target: T1, Peroxisome proliferator-activated receptor gamma (Homo sapiens) (UniProt P37231); assay: Agonist activity at PPARgamma (unknown origin)
T1 sequence (whole entry): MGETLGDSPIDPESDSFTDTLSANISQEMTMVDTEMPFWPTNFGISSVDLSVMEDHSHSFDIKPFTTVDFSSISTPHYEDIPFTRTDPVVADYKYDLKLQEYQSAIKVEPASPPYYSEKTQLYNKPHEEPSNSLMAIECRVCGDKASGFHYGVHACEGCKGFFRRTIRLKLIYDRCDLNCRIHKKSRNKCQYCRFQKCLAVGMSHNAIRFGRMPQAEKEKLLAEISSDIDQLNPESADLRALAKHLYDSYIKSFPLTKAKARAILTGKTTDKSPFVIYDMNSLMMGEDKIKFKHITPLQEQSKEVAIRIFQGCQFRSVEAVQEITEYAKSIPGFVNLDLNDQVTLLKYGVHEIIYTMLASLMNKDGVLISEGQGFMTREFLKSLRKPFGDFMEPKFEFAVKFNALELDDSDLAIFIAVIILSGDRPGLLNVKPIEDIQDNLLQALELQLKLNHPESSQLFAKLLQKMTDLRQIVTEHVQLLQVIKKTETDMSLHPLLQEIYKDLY

Activity [1] | Structure (SMILES) | Activity (BG02) | Activity (MCF7) | Activity (MDA-MB-231)
inactive | C[C@H]1C[C@@H]2OC(=O)[C@@H]3C(=O)OC[C@H]1[C@@H]32 | inactive | inactive | inactive
inactive | COC(=O)[C@@H]1C(=O)OC[C@H]2[C@@H]1[C@H](O)C[C@@H]2C | inactive | inactive | inactive
inactive | C[C@H]1C[C@@H]2OC(=O)C[C@@H]2[C@@H]1CO | inactive | inactive | inactive

Second part, the compound before the results:

Structure (SMILES) | Activity [1] | Activity (BG02) | Activity (MCF7) | Activity (MDA-MB-231)
COC(=O)[C@H]1C(=O)O[C@H]2C[C@H](C)[C@@H](CO[C@@H]3O[C@H](CO)[C@@H](O)[C@H](O)[C@H]3O)[C@@H]12 |  | inactive | inactive | inactive
C[C@H]1C[C@@H](O)[C@@H]2CC(=O)OC[C@@H]21 | inactive | inactive | inactive | 
